Measurements from patent US10512634B2, “Benzimidazole derivates useful as inhibitors of mammalian histone deacetylase activity” (KANCERA AB, priority 2015, dated 2019).
Structures can show the parent of a compound that is named as a salt. Where two headings read alike, the source gives them in different places.

Key:
HDAC6 = HDAC6 (Homo sapiens (Human), UniProt Q9UBN7); assay: HDAC in vitro enzymatic assay (fluorescence); type: biochemical
Method: Biological Tests Method for Measurement of Enzymatic Activity of HDACs Materials & Methods
All Examples were tested in HDAC1, 2, 3, 6 and 8 in vitro enzymatic assays. The assay principle is well known (Hauser et al. 2009, Bradner et al. 2010) and all necessary reagents like enzymes, substrates, developer and reference compounds are commercially available (see e.g. BPS Biosciences http://www.bpsbioscience.com/). A series of dilutions of the compounds were prepared with a top concentration of 200 μM (2 μM for HDAC6). The enzymatic reactions were conducted in a mixture containing assay buffer, bovine serum albumin, HDAC substrate, and a test compound. After enzymatic reaction, developer was added and after an additional incubation time, fluorescence intensity was measured at an excitation wavelength of 360 nm and an emission wavelength of 460 nm. A selection of the Examples were tested in a full HDAC panel containing HDAC1, 2, 3, 4, 5, 6, 7, 8, 9, 10 and 11 in vitro enzymatic assays. The tests were performed as above except that a series of dilutions of the compounds were prepared with a top concentration of 10 μM for all HDACs.

HDAC1 = HDAC1 (Homo sapiens (Human), UniProt Q13547); assay: HDAC in vitro enzymatic assay (fluorescence)
HDAC2 = HDAC2 (Homo sapiens (Human), UniProt Q92769); assay: HDAC in vitro enzymatic assay (fluorescence); conditions: read-out: IC50 HDAC2
HDAC3 = HDAC3 (Homo sapiens (Human), UniProt O15379); assay: HDAC in vitro enzymatic assay (fluorescence); conditions: read-out: IC50 HDAC3
HDAC8 = HDAC8 (Homo sapiens (Human), UniProt Q9BY41); assay: HDAC in vitro enzymatic assay (fluorescence); conditions: read-out: IC50 HDAC8
HDAC4 = HDAC4 (Homo sapiens (Human), UniProt P56524); assay: HDAC in vitro enzymatic assay (full HDAC panel); conditions: read-out: IC50 HDAC4, top concentration 10 μM
HDAC5 = HDAC5 (Homo sapiens (Human), UniProt Q9UQL6); assay: HDAC in vitro enzymatic assay (full HDAC panel); conditions: read-out: IC50 HDAC5, top concentration 10 μM
HDAC7 = HDAC7 (Homo sapiens (Human), UniProt Q8WUI4); assay: HDAC in vitro enzymatic assay (full HDAC panel); conditions: read-out: IC50 HDAC7, top concentration 10 μM
HDAC9 = HDAC9 (Homo sapiens (Human), UniProt Q9UKV0); assay: HDAC in vitro enzymatic assay (full HDAC panel); conditions: read-out: IC50 HDAC9, top concentration 10 μM
HDAC10 = HDAC10 (Homo sapiens (Human), UniProt Q969S8); assay: HDAC in vitro enzymatic assay (full HDAC panel); conditions: read-out: IC50 HDAC10, top concentration 10 μM
HDAC11 = HDAC11 (Homo sapiens (Human), UniProt Q96DB2); assay: HDAC in vitro enzymatic assay (full HDAC panel); conditions: read-out: IC50 HDAC11, top concentration 10 μM
AMO-1 (plasmacytom) = assay: CellTiter-Blue cell viability assay; type: cell-based; conditions: Homo sapiens, AMO1, 72 h, read-out: IC50 AMO-1 (cell viability)
Method: (§1) Method for Measurement of Cell Viability
(§2) The CellTiter-Blue® Cell Viability Assay (Promega) provides a homogeneous, fluorometric method for estimating the number of viable cells present in multi-well plates. The assay uses the indicator dye resazurin to measure the metabolic capacity of cells. Viable cells retain the ability to reduce resazurin into resorufin, which is highly fluorescent.
(§3) Stock solutions (10 mM in DMSO) of compounds were serially diluted 1:2 in 11 concentrations. 50 nL/well (10 mM compound stock in DMSO) was acoustically dispensed in 384-well assay plates with an acoustic dispenser (EDC Biosystems ATS-100AV). Final starting concentration in the assay was 20 μM (0.2% DMSO) for test compounds. […] After 72 hours, Celltiter Blue reagent (Promega #G8081) was diluted 1:10 with PBS and then added to wells (5 μL/well). The plates were incubated for 2 hours following addition of reagent. […] Results were calculated as % cell viability compared to background (cells treated with 0.2% DMSO).

[1] = tested on: PBMC (peripheral blood mononuclear cells from healthy donors); assay: CellTiter-Blue cell viability assay; type: cell-based; conditions: PBMC, 72 h, read-out: IC50 healthy PBMC (cell viability)
Method: as §1, §2, §3

PaCa2 (pancreatic) = assay: CellTiter-Blue cell viability assay; type: cell-based; conditions: PaCa-2, 72 h, read-out: IC50 PaCa2 (cell viability)
Method: as §1, §2, §3

U266 (multiple myelom) = assay: CellTiter-Blue cell viability assay; type: cell-based; conditions: Homo sapiens, U-266, 72 h, read-out: IC50 U266 (cell viability)
Method: as §1, §2, §3

[2] = full HDAC panel, top concentration 10 μM, read-out: IC50 HDAC6
[3] = top concentration 2 μM, read-out: IC50 values for inhibition of HDAC6
[4] = read-out: IC50 HDAC 1, full HDAC panel, top concentration 10 μM
[5] = full HDAC panel, top concentration 10 μM
[6] = selectivity profiling, top concentration 2 μM, read-out: IC50 HDAC6
[7] = read-out: IC50 HDAC1, selectivity profiling, top concentration 200 μM
[8] = selectivity profiling, top concentration 200 μM

HDAC2, sequence (Q92769 whole entry): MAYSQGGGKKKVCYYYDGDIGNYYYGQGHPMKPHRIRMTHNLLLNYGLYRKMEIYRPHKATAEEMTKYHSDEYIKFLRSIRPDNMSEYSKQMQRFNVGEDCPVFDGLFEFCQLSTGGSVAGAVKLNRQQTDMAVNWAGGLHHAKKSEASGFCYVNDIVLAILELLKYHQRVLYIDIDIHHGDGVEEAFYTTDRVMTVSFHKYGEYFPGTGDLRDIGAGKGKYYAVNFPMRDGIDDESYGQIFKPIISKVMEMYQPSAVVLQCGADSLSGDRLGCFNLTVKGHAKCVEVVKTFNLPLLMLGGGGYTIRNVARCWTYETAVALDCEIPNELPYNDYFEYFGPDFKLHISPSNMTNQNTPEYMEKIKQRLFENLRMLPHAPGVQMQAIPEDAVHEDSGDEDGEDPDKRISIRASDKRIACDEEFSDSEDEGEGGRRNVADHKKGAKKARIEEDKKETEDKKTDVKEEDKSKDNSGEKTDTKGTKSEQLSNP
HDAC1, sequence (Q13547 whole entry): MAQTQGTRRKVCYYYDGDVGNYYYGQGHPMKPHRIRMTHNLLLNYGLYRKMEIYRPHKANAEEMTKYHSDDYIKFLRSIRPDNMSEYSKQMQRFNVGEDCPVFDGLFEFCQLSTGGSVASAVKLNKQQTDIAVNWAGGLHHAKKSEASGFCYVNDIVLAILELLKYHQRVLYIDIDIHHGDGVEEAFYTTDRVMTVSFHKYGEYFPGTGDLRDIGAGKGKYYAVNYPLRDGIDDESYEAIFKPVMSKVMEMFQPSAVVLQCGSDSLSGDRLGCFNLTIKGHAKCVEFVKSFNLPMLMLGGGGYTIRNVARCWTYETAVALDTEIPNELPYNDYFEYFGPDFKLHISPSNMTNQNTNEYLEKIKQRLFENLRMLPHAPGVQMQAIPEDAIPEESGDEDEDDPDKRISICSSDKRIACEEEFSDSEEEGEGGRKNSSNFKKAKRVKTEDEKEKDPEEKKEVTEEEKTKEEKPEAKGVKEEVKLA
HDAC8, sequence (Q9BY41 whole entry): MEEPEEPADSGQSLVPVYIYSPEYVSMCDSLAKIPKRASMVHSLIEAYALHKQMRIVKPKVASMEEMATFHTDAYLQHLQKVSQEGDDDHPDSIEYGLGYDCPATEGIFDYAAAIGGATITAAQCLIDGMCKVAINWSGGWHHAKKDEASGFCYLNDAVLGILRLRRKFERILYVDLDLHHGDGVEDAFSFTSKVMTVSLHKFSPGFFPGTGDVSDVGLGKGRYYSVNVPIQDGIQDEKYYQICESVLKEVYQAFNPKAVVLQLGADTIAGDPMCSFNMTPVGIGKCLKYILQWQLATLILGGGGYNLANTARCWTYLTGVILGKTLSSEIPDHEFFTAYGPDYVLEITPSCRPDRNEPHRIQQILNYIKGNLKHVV
HDAC3, sequence (O15379 whole entry): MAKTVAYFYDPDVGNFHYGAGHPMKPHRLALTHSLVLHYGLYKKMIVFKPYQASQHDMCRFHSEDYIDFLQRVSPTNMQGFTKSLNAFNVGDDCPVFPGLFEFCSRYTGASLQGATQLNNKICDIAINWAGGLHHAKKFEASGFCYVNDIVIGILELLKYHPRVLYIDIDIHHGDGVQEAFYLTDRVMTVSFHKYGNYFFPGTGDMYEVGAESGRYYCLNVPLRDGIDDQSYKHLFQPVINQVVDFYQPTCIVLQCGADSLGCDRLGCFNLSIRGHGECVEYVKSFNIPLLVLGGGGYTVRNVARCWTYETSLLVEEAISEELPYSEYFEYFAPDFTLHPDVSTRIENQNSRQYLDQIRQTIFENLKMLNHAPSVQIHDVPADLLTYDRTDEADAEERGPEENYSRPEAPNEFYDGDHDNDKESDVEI
HDAC3, sequence (Q9Y618 395-489 partner): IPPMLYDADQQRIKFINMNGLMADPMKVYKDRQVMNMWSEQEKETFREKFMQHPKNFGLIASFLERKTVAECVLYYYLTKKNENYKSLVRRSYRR
HDAC9, sequence (Q9UKV0 whole entry): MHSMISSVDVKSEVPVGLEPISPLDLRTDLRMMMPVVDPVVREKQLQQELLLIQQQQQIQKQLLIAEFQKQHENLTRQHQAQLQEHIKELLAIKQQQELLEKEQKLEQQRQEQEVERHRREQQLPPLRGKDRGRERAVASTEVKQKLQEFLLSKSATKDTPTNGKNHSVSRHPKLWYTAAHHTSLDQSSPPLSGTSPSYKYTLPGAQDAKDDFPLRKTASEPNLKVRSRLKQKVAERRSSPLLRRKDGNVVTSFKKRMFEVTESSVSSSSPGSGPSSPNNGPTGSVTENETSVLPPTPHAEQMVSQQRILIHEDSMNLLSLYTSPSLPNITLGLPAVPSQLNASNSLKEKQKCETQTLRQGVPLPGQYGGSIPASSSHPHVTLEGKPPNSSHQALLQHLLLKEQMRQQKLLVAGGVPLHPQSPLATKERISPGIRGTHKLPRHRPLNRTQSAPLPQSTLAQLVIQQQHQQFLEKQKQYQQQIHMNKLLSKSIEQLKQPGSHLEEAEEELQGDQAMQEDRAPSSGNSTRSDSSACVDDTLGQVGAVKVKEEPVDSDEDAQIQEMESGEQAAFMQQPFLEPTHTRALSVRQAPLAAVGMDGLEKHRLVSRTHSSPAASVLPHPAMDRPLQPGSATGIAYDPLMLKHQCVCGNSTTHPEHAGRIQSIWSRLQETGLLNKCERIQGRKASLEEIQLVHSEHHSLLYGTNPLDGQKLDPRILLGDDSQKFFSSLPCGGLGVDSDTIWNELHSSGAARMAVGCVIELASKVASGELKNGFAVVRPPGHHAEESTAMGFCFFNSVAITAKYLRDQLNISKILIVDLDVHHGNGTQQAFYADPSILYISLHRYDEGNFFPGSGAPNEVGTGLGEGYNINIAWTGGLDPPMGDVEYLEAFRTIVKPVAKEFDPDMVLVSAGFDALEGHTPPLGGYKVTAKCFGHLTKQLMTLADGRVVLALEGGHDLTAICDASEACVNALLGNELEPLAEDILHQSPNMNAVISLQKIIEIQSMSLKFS
HDAC10, sequence (Q969S8 whole entry): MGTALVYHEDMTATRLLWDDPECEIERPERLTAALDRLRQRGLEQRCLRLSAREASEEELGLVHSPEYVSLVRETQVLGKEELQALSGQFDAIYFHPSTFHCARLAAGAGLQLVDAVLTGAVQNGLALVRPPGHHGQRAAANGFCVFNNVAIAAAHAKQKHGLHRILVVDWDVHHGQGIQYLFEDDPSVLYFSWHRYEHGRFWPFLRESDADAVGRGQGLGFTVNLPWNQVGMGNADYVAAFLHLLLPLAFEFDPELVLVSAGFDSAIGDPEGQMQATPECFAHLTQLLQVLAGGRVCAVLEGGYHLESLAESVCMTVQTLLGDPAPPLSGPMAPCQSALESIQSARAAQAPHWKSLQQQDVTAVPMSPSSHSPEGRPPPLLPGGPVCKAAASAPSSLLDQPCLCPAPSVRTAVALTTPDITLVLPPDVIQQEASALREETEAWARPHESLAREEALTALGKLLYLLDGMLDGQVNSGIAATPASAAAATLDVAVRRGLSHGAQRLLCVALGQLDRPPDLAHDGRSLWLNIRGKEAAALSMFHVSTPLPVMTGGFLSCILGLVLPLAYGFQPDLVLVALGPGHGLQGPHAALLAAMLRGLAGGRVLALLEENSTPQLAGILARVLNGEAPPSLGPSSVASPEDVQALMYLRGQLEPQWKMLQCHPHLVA
HDAC11, sequence (Q96DB2 whole entry): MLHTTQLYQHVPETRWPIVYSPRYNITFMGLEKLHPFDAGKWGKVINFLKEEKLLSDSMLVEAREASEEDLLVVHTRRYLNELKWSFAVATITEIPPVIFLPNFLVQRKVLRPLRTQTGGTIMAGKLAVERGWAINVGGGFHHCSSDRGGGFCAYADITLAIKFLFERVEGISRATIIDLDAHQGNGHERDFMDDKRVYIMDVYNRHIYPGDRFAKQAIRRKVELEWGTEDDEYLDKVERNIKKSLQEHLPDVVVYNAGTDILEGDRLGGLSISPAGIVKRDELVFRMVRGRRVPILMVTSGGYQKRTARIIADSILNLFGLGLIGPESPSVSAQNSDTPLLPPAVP
HDAC5, sequence (Q9UQL6 whole entry): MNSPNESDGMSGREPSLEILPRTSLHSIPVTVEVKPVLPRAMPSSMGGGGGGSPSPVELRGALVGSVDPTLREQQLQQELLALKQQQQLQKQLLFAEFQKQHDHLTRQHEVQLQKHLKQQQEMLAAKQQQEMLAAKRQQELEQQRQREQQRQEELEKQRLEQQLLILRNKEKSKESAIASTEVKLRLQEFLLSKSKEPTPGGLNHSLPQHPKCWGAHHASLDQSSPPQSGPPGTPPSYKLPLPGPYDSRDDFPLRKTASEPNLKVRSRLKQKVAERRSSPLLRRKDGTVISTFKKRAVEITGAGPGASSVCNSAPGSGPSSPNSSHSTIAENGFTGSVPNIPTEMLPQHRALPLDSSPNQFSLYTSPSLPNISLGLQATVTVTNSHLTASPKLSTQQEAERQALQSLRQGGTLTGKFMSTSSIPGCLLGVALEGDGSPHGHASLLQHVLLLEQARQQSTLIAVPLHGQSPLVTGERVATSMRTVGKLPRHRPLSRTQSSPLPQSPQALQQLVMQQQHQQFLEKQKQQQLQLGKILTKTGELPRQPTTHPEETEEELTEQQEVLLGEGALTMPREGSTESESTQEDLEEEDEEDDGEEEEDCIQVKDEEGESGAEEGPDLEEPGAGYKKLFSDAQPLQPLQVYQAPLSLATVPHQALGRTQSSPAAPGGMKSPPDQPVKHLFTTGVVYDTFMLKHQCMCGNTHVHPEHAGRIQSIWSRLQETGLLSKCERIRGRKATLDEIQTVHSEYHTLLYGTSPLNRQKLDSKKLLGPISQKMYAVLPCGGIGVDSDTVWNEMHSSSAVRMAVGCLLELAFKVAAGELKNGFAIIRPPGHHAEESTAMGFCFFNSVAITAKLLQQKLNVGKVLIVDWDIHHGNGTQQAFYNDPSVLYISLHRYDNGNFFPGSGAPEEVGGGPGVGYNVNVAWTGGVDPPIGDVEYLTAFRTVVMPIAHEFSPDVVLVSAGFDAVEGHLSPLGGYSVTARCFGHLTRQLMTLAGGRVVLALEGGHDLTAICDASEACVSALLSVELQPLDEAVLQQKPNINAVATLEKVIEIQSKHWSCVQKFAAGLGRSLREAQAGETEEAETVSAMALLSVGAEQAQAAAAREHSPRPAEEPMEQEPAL

Compound | IC50 (HDAC6; [2]) | IC50 (HDAC6; [3]) | IC50 (HDAC1; [4]) | IC50 (HDAC2; [5]) | IC50 (HDAC3; [5]) | IC50 (HDAC8; [5]) | IC50 (HDAC4) | IC50 (HDAC5) | IC50 (HDAC7) | IC50 (HDAC9) | IC50 (HDAC10) | IC50 (HDAC6; [6]) | IC50 (AMO-1 (plasmacytom)) | IC50 [1] | IC50 (PaCa2 (pancreatic)) | IC50 (U266 (multiple myelom)) | IC50 (HDAC1; [7]) | IC50 (HDAC2; [8]) | IC50 (HDAC3; [8]) | IC50 (HDAC8; [8]) | also measured
Cc1cc(O)cc(C)c1-c1nc2ccc(C(=O)NO)cc2[nH]1 [Example 15, N-hydroxy-2-(4-hydroxy-2,6-dimethylphenyl)-1H-benzimidazole-6-carboxamide] | 0.069 µM | 0.069 µM | > 10 µM | > 10 µM | 8.2 µM | > 10 µM | > 10 µM | > 10 µM | 3 µM | 6.9 µM | > 10 µM | – | – | – | – | – | – | – | – | – | IC50 (HDAC11): > 10 µM
O=C(NO)c1ccc2nc(-c3ccccc3C(F)(F)F)[nH]c2c1 [Example 18, N-hydroxy-2-[2-(trifluoromethyl)phenyl]-1H-benzimidazole-6-carboxamide] | 0.077 µM | 0.077 µM | > 10 µM | > 10 µM | 3 µM | > 10 µM | > 10 µM | > 10 µM | 9.2 µM | > 10 µM | 8.6 µM | – | – | – | – | – | – | – | – | – | IC50 (HDAC11): > 10 µM
CCCCc1ccc(-c2nc3ccc(C(=O)NO)cc3[nH]2)cc1 [Example 162, 2-(4-butylphenyl)-N-hydroxy-1H-benzimidazole-6-carboxamide] | – | 0.031 µM | – | – | – | – | – | – | – | – | – | 0.031 µM | 3.7 µM | > 20 µM | 0.82 µM | 0.74 µM | 7.7 µM | 94 µM | 11 µM | 0.19 µM | –
O=C(NO)c1ccc2nc(-c3ccc(-c4ccc(CN5CCOCC5)cc4)cc3)[nH]c2c1 [Example 190, N-hydroxy-2-[4′-(morpholin-4-ylmethyl)biphenyl-4-yl]-1H-benzimidazole-6-carboxamide trifluoroacetate] | – | 0.021 µM | – | – | – | – | – | – | – | – | – | 0.021 µM | 8.1 µM | > 20 µM | 2.3 µM | 3.9 µM | 4 µM | 13 µM | 0.91 µM | 0.08 µM | –
CC(C)c1ccc(-c2nc3cc(C(=O)NO)ccc3n2C)cc1 [Example 223, N-hydroxy-1-methyl-2-[4-(1-methylethyl)phenyl]-1H-benzimidazole-5-carboxamide] | – | 0.028 µM | – | – | – | – | – | – | – | – | – | 0.028 µM | 18 µM | > 20 µM | 5.4 µM | 8.2 µM | 1.6 µM | 60 µM | 4.5 µM | 0.084 µM | –
Cn1c(-c2ccc(-c3ccccc3)cc2)nc2cc(C(=O)NO)ccc21 [Example 225, 2-biphenyl-4-yl-N-hydroxy-1-methyl-1H-benzimidazole-5-carboxamide] | – | 0.0036 µM | – | – | – | – | – | – | – | – | – | 0.0036 µM | > 20 µM | > 20 µM | 1 µM | 0.34 µM | 0.326 µM | > 200 µM | > 200 µM | 0.074 µM | –
